Measurements: patent US20240374598A1, “INHIBITORS OF HUMAN IMMUNODEFICIENCY VIRUS REPLICATION” (ViiV HEALTHCARE UK (NO.5) LIMITED, priority 2018, published 2024)

Columns and labels:
[1] = Compound cytotoxicity, XTT-based colorimetric assay; assay type: cell-based; conditions: human; uninfected MT2 cells, day 4, XTT assay
Description: Compound cytotoxicity and the corresponding CC50 values were determined using the same protocol as described in the antiviral assay except that uninfected cells were used. Cytotoxicity was assessed on day 4 in uninfected MT2 cells by using a XTT (2,3-bis[2-Methoxy-4-nitro-5-sulfophenyl]-2H-tetrazolium-5-carboxyanilide inner salt)-based colorimetric assay (Sigma-Aldrich, St Louis, Mo).

[2] = system: recombinant NL4-3 virus (nef section replaced with Renilla luciferase gene) in MT-2 cells; test: HIV cell culture assay (antiviral activity, luciferase readout); assay type: cell-based; conditions: NL43, MT-2 cells infected for 4-5 days with recombinant NL4-3 Renilla luciferase virus
Method in brief: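 MT-2 cells were infected for 4–5 days with NL4-3 reporter virus carrying Renilla luciferase in place of part of nef, in the presence of serially diluted compound. Luciferase activity, read with a live-cell substrate, gave percent inhibition; EC50 derived from the median effect equation.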

`CC(C)(C)c1ccc2c(=O)n(-c3ccc(Cl)c4c(NS(=O)(=O)C5CC5)nn(CC(F)F)c34)c([C@H](Cc3cc(F)cc(F)c3)NC(=O)Cn3nc(C(F)F)c4c3C(F)(F)[C@@H]3C[C@H]43)nc2c1` [Example 27, N—((S)-1-(7-(tert-butyl)-3-(4-chloro-3-(cyclopropanesulfonamido)-1-(2,2-difluoroethyl)-1H-indazol-7-yl)-4-oxo-3,4-dihydroquinazolin-2-yl)-2-(3,5-difluorophenyl)ethyl)-2-((3bS,4aR)-3-(difluoromethyl)-5,5-difluoro-3b,4,4a,5-tetrahydro-1H-cyclopropa[3,4]cyclopenta[1,2-c]pyrazol-1-yl)acetamide] showed a CC50 at 4 day [1] of over 1000 nM and an EC50 [2] of 0.61 nM.
